Measured values taken from US9546188B2, “Complexes of germanium with amino acids and carboxylic acids and method for preparing same” (OBSCHESTVO S OGRANICHENNOI OTVETSTVENNOSTYU “WDS FARMA”, priority 2012, dated 2017).

Tests used:
[1] = tested on: oval cancer and malignant tumors of the uterus; settings: cited from earlier work
[2] = tested on: and malignant tumors of the uterus; settings: six patients, 100 mg orally twice daily; cited from earlier work
[3] = room temperature

| water solubility [3] [%] | Structure (SMILES) | infiltration in post-operational examination ([1]; examination one month later) | health of patients ([1]; six patients, 100 mg orally as 10% solution twice daily, tumors removed surgically) | toxic side effects ([1]; six patients, 100 mg orally twice daily) | exudate in the abdominal cavity or internal pelvic cavity [2] |
| --- | --- | --- | --- | --- | --- |
|  | N[C@@H](CC(=O)O)C(=O)O.[Ge] [germanium compound with aspartic acid] | None patients showed infiltration | noticeable improvement in health | no toxic side effects | five patients did not show exudate |
| 0.2 | O=C(O)CCCCCCCC(=O)O [azelaic acid] |  |  |  |  |
